Key:
rat mGlu2 receptor = biological target: T1, rat mGlu2 receptor (Rattus norvegicus, UniProt P31421); experiment: [3H]-LY354740 binding on mGlu2 transfected CHO cell membranes; settings: displacement of 10 nM [3H]-LY354740, CHO cell membranes, room temperature, 1 hour
T1 construct: expressed in transfected cells; host or cells: CHO cells, stably transfected with pcD1mGR2 (G-418 selection); membranes used
Description: [^3H]-LY354740 Binding on mGlu2 Transfected CHO Cell Membranes. Transfection and Cell Culture
cDNA encoding the rat mGlu2 receptor protein in pBluescript II was subcloned into the eukaryotic expression vector pcDNA I-amp from Invitrogen Ltd (Paisley, UK). This vector construct (pcD1mGR2) was co-transfected with a psvNeo plasmid encoding the gene for neomycin resistance, into CHO cells by a modified calcium phosphate method described by Chen & Okayama (1988). The cells were maintained in Dulbecco's Modified Eagle medium with reduced L-glutamine (2 mM final concentration) and 10% dialysed foetal calf serum from Gibco-Invitrogen (Carlsbad, Calif., USA). Selection was made in the presence of G-418 (1000 ug/ml final) and […]. Clones were identified by reverse transcription of 5 μg total RNA, followed by PCR using mGlu2 receptor specific primers 5′-[…]-3′ and 5′-[…]-3′ in 60 mM Tris HCl (pH 10), 15 mM (NH4)2SO4, 2 mM MgCl2, 25 units/ml Taq Polymerase with 30 cycles annealing at 60° C. for 1 min., extention at 72° C. for 30 s, and 1 min. 95° C. denaturation.
Cells, cultured as above, were harvested and washed three times with cold PBS and frozen at −80° C. The pellet was resuspended in cold 20 mM HEPES-NaOH buffer containing 10 mM EDTA (pH 7.4), and homogenised with a polytron (Kinematica, AG, Littau, Switzerland) for 10 s at 10 000 rpm. After centrifugation for 30 min. at 4° C., the pellet was washed once with the same buffer, and once with cold 20 mM HEPES-NaOH buffer containing 0.1 mM EDTA, (pH 7.4). Protein content was measured using the micro BCA method from Pierce-Perbio (Rockford, Ill., USA) using bovine serum albumin as standard.
After thawing, the membranes were resuspended in cold 50 mM Tris-HCl buffer containing 2 mM MgCl2 (pH 7) (binding buffer). The final concentration of the membranes in the assays was 25 μg protein/ml. Inhibition experiments were performed with membranes incubated with 10 nM [^3H]-LY354740 at room temperature, for 1 hour, in presence of various concentrations of the compound to be tested. Following the incubations, membranes were filtered onto Whatmann GF/B glass fiber filters and washed 5 times with cold binding buffer. Non specific binding was measured in the presence of 10 μM DCG IV. After transfer of the filters into plastic vials containing 10 ml of Ultima-gold scintillation fluid from Perkin-Elmer (Boston, Mass., USA), the radioactivity was measured by liquid scintillation in a Tri-Carb 2500 TR counter (Packard, Zürich, Switzerland).
The inhibition curves were fitted with a four parameter logistic equation giving IC50 values, and Hill coefficients.

T1 sequence (P31421 19-872): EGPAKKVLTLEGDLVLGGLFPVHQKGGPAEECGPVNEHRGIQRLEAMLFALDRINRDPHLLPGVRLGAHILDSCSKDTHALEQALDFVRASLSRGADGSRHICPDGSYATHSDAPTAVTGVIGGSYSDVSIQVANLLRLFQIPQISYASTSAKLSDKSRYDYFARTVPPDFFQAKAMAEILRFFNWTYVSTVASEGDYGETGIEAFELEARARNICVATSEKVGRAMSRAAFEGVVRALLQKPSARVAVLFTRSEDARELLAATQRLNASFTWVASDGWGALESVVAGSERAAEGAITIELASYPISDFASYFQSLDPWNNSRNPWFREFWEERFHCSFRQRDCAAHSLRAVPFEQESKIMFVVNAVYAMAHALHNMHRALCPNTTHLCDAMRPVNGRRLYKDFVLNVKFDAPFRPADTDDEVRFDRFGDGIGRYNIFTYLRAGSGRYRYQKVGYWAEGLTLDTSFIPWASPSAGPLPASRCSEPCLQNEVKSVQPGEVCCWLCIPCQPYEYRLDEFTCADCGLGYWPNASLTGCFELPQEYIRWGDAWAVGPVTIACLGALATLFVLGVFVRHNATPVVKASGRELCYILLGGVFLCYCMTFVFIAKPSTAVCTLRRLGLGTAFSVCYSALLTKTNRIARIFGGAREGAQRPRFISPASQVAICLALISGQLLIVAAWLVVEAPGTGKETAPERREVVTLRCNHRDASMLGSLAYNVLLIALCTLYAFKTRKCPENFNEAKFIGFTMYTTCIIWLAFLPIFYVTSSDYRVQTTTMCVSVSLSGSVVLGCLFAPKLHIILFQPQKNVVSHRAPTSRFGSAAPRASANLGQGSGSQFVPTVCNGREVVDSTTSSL

Row | Compound | Ki (rat mGlu2 receptor) [nM] | melting point [°C]
1 | O=C(Nc1cccc(S(=O)(=O)N2CCOCC2)c1)c1cnn2c(C(F)(F)F)cc(-c3ccc(C(F)(F)F)cc3)nc12 [Example 1, 7-Trifluoromethyl-5-(4-trifluoromethyl-phenyl)-pyrazolo[1,5-a]pyrimidine-3-carboxylic acid[3-(morpholine-4-sulfonyl)-phenyl]-amide] | 30 | 233
2 | O=C(Nc1cccc(S(=O)(=O)NCC2CC2)c1)c1cnn2c(C(F)F)cc(-c3ccc(C(F)(F)F)cc3)nc12 [Example 73, 7-Difluoromethyl-5-(4-trifluoromethyl-phenyl)-pyrazolo[1,5-a]pyrimidine-3-carboxylic acid [3-(cyclopropylmethyl-sulfamoyl)-phenyl]-amide] | – | 238
3 | O=C(Nc1cccc(S(=O)(=O)NCC(F)(F)F)c1)c1cnn2c(C(F)F)cc(-c3ccc(C(F)(F)F)cc3)nc12 [Example 52, 7-Difluoromethyl-5-(4-trifluoromethyl-phenyl)-pyrazolo[1,5-a]pyrimidine-3-carboxylic acid [3-(2,2,2-trifluoro-ethylsulfamoyl)-phenyl]-amide] | – | 257
4 | CN(C)CCNS(=O)(=O)c1cccc(NC(=O)c2cnn3c(C(F)F)cc(-c4ccc(C(F)(F)F)cc4)nc23)c1 [Example 144, 7-Difluoromethyl-5-(4-trifluoromethyl-phenyl)-pyrazolo[1,5-a]pyrimidine-3-carboxylic acid[3-(2-dimethylamino-ethylsulfamoyl)-phenyl]-amide] | 7 | 184
5 | O=C(Nc1cccc(S(=O)(=O)Nc2ccccc2)c1)c1cnn2c(C(F)F)cc(-c3ccc(C(F)(F)F)cc3)nc12 [Example 74, 7-Difluoromethyl-5-(4-trifluoromethyl-phenyl)-pyrazolo[1,5-a]pyrimidine-3-carboxylic acid(3-phenylsulfamoyl-phenyl)-amide] | 67 | 228
6 | O=C(Nc1cccc(S(=O)(=O)NCCO)c1)c1cnn2c(C(F)F)cc(-c3ccc(C(F)(F)F)cc3)nc12 [Example 83, 7-Difluoromethyl-5-(4-trifluoromethyl-phenyl)-pyrazolo[1,5-a]pyrimidine-3-carboxylic acid [3-(2-hydroxy-ethylsulfamoyl)-phenyl]-amide] | – | 231
7 | O=C(Nc1cccc(S(=O)(=O)NCc2ccncc2)c1)c1cnn2c(C(F)F)cc(-c3ccc(C(F)(F)F)cc3)nc12 [Example 88, 7-Difluoromethyl-5-(4-trifluoromethyl-phenyl)-pyrazolo[1,5-a]pyrimidine-3-carboxylic acid {3-[(pyridin-4-ylmethyl)-sulfamoyl]-phenyl}-amide] | 15 | 221
8 | NS(=O)(=O)c1cccc(NC(=O)c2cnn3c(C(F)F)cc(-c4ccc(C(F)(F)F)c(OCC(F)(F)F)c4)nc23)c1 [Example 79, 7-Difluoromethyl-5-[3-(2,2,2-trifluoro-ethoxy)-4-trifluoromethyl-phenyl]-pyrazolo[1,5-a]pyrimidine-3-carboxylic acid(3-sulfamoyl-phenyl)-amide] | 11 | 241
9 | O=C(Nc1cccc(S(=O)(=O)NCc2cccnc2)c1)c1cnn2c(C(F)F)cc(-c3ccc(C(F)(F)F)cc3)nc12 [Example 106, 7-Difluoromethyl-5-(4-trifluoromethyl-phenyl)-pyrazolo[1,5-a]pyrimidine-3-carboxylic acid {3-[(pyridin-3-ylmethyl)-sulfamoyl]-phenyl}-amide] | – | 256
10 | O=C(Nc1cccc(S(=O)(=O)CCO)c1)c1cnn2c(C(F)F)cc(-c3ccc(C(F)(F)F)cc3)nc12 [Example 90, 7-Difluoromethyl-5-(4-trifluoromethyl-phenyl)-pyrazolo[1,5-a]pyrimidine-3-carboxylic acid [3-(2-hydroxy-ethanesulfonyl)-phenyl]-amide] | – | 205

— patent US7378417B2, “Pyrazolo-pyrimidine derivatives” (Hoffmann-La Roche Inc., priority 2004, dated 2008)
